In patent US20210386829A1, “COMPOSITIONS AND METHODS FOR MODULATING CGRP SIGNALING TO REGULATE INNATE LYMPHOID CELL INFLAMMATORY RESPONSES” (The Broad Institute, Inc., priority 2018, published 2021):
Entries after “also recorded” stand apart in the source; their conditions may differ.

Test system: IL-33-induced airway inflammation
Test: IL-33-induced airway inflammation, intranasal co-administration of CGRP
Format: in vivo, mouse
Excerpt: Mice and in vivo ILC activation. C57B1/6J mice were purchased from the Jackson Laboratory. Nmur1-LacZ reporter mice with a LacZ cassette knocked into the Nmur1 locus were rederived from Nmur1^tm1.1(KOMP)Vlcg sperm obtained from the trans-NIH Knock-Out Mouse Project (KOMP) Repository. NMU-deficient mice (NMU-KO) were rederived from B6.129S2-Nmu<tm1Mko> embryos from the RIKEN BioResource Center. For experiments with Nmur1-LacZ (Nmur1-KO) and NMU-KO mice, littermates that were either homozygous or heterozygous for the wild type allele were used as controls. Mice were housed under specific-pathogen-free conditions. For experiments, mice were matched for sex and age, and most mice were 6-10 weeks old. Where indicated, mice were anesthetized with Isoflurane and treated intranasally with the indicated stimuli (500 ng IL-25, 500 ng IL-33, or 20 μg Neuromedin U) daily for three consecutive days. The total administered volume was 20 μl for all conditions. Mice were randomly assigned to treatment groups after matching for sex and age. […] Mice were treated intranasally with 10 μg HDM on day 0, 7, 8, and 9, prior to sacrifice on day 10. All experiments were conducted in accordance with animal protocols approved by the Harvard Medical Area Standing Committee on Animals or BWH IACUC.
Lung analysis. Mice were sacrificed and perfused with cold PBS. Where indicated, after perfusion, broncho-alveolar lavage (BAL) was obtained by injecting 1.5 ml cold PBS into the lungs via a secured tracheal cannula. BALF was centrifuged, and the supernatant was used for analyzing cytokine levels and the cell pellet was resuspended, counted, and used for flow cytometry. Following BAL, lung lobes were dissected. The post-caval lobe was fixed in buffered formalin for histological analysis. Single cell suspensions of the remaining lung parenchymal tissue were prepared with the GentleMACS lung dissociation kit (Miltenyi Biotec) according to the manufacturer's instructions. Where indicated, cells were diluted in 10% Trypan Blue and viable cells counted using a hemocytometer.
Histology. Following paraffin embedding, sections of the formalin-fixed lung lobe were stained by H&E staining. Tissue sections were scored by a histopathologist in a blinded manner for severity of lung inflammation according to the following scoring system: 0=normal, 1=very mild, 2=mild, 3=moderate or 4=severe.
Methacholine challenge. Airway hyperresponsiveness was determined as previously described (Talbot, S. et al. Silencing Nociceptor Neurons Reduces Allergic Airway Inflammation. Neuron 87, 341-354, doi:10.1016/j.neuron.2015.06.007 (2015)) using a flexiVent rodent ventilator (SciReq).
Cytokine-induced airway inflammation. Mice received nasally 500 ng IL-25, 500 ng IL-33, 20 ug NMU or 6.65 ug CGRP diluted in DPBS for three consecutive days. For nasal administration, mice were lightly anesthetized with Isoflurane (Cat #07-893-1389; Patterson Veterinary). For induction of inflammatory ILC2s, mice received intraperitoneally 500 ng IL-25 for three consecutive days. One day after the last treatment, mice were euthanized and perfused with 8 ml cold PBS via the right heart ventricle. After exposure of the trachea, a small incision was made at the top of the trachea and a curved gavage needle was inserted. Lungs were washed with 1.5 ml cold PBS via the needle and the retrieved bronchoalveolar lavage fluid was centrifuged at 1300 rpm for 5 min at 4 C. After centrifugation, the supernatant was frozen at −20° C. and the cell pellet was resuspended in 250 ul complete medium and stored on ice until flow cytometric analysis. The post-caval lung lobe was transferred into 10% buffered formalin and stored at room temperature until paraffin embedding for histological analysis. […]

[1] = IL-33+CGRP vs IL-33 alone, intranasal, three consecutive days

Substance: CGRP: neuropeptide calcitonin gene-related peptide (encoded by Calca), ligand of the Ramp1/Calcrl receptor; given at 100 nM in vitro, 6.65 ug nasally
- lung histology (H&E) (CGRP alone vs PBS-treated control mice): histologically identical
- frequency or total number of lung-resident ILCs (CGRP alone vs PBS-treated mice): did not alter
- IL-33-induced perivascular and peribronchial lymphocytic infiltrates in lung sections (H&E, blinded score) (IL-33+CGRP vs IL-33 alone): markedly inhibited
- airway hyperreactivity (airway resistance, methacholine challenge) (IL-33+CGRP vs IL-33 alone): less airway hyperreactivity
- frequency of IL-5- and IL-13-positive ILCs (IL-33+CGRP vs IL-33 alone): significantly reduced
- frequency of Ki67+ lung ILCs (IL-33+CGRP vs IL-33 alone): decreased frequencies
- lung ILC frequencies and numbers (IL-33+CGRP vs IL-33 alone): significantly reduced
- IL-5 and IL-13 protein in BALF (lung homogenates and BALF) [1]: lower; also recorded: reduced; also recorded: greatly diminished
- eosinophil frequency in lungs and BALF [1]: significantly reduced; also recorded: significantly decreased
- eosinophil numbers in lung (lung and BALF) [1]: significantly reduced; also recorded: significantly decreased
- Il5 and Il13 RNA expression in lung tissue (qPCR) (IL-33+CGRP vs IL-33 alone, intranasal, three consecutive days, analysed one day later): significantly reduced
